Experimental data as given in paper PMC11678237 (2024).

Experiments:
[1] = system: poly(dA)•2poly(dT) (DNA, polymer) A/T; assay: UV melting, 260 nm; conditions: pH 7.0; for ΔTm3→2 / binding: 150 mM KCl, 10 mM sodium cacodylate; for ΔTm3→2: per base
[2] = system: DNA3 (DNA, triplex) GAAAAAAAAAAAAAGTTTTCTTTTTTTTTTTTCTTTTCTTTTTTTTTTTTTC; assay: ITC; conditions: 100 mM NaCl, 10 mM sodium cacodylate, pH 7.0, 15 °C; for Kd: independent model
[3] = system: DNA4 (DNA, hairpin) GAAAAAAAAAAAAAGTTTTCTTTTTTTTTTTTTC; assay: ITC; conditions: 100 mM NaCl; 10 mM sodium cacodylate, pH 7.0, 15 °C; 100 μM ligand titrant; heat of dilution only
[4] = system: poly(dA)•2poly(dT) (DNA, polymer) A/T; assay: viscosity; conditions: 150 mM KCl; 10 mM sodium cacodylate, pH 7.0, room temperature; intercalation
[5] = system: poly(dA)•poly(dT) (DNA, polymer) A/T; assay: UV melting; conditions: 150 mM KCl; 10 mM sodium cacodylate, pH 7.0; 10 μM compound; Tm2→1 stays near 72 °C
[6] = system: DNA3 (DNA, triplex) GAAAAAAAAAAAAAGTTTTCTTTTTTTTTTTTCTTTTCTTTTTTTTTTTTTC; assay: CD titration; conditions: 100 mM NaCl; 10 mM sodium cacodylate, pH 7.0, 15 °C; 0 to 50 μM compound
[7] = system: DNA4 (DNA, hairpin) GAAAAAAAAAAAAAGTTTTCTTTTTTTTTTTTTC; assay: CD titration; conditions: 100 mM NaCl; 10 mM sodium cacodylate, pH 7.0, 15 °C; 0 to 50 μM compound
[8] = system: DNA1/DNA2/TFO1 triplex (DNA, triplex) ATGGCAAAAAAAAGGAGAAGCTGACCACCTGACTA/TAGTCAGGTGGTCAGCTTCTCCTTTTTTTTGCCAT/CTTTCTTTTTTTTTCCTCTTC; assay: native PAGE gel shift; conditions: none added; 90 mM Tris–acetate, pH 5.0; 1 to 100 μM compound; triplex formation promoted
[9] = 10 μM compound, 15 μM base triplet
[10] = 10 mM lithium cacodylate, no added salt, 10 μM compound, Tm not shift, no triplex without ligand, duplex Tm 58 °C

## CCCN(CCC)CCCOc1cccc2oc(-c3ccccc3)cc(=O)c12
[1]; [9]
  ΔTm3→2: 23.8 °C

## O=c1cc(-c2ccccc2)oc2cccc(OCCCCN3CCCCC3)c12
[2]
  Kd: 3.08 ± 1.26 × 10^-5 M
[1]; [10]
  Tm3→2: 40 °C
[1]; [9]
  ΔTm3→2: 12.1 °C

## NC[C@@H]1O[C@H](O[C@H]2[C@@H](O)[C@H](O[C@@H]3[C@@H](O)[C@H](N)C[C@H](N)[C@H]3O[C@H]3O[C@H](CN)[C@@H](O)[C@H](O)[C@H]3N)O[C@@H]2CO)[C@H](N)[C@@H](O)[C@@H]1O
[1]; 0 to 20 μM compound, no effect at 0.5 μM
  binding: yes

## O=c1cc(-c2ccccc2)oc2cccc(OCCN3CCCCC3)c12
[2]
  Kd: 2.10 ± 1.12 × 10^-5 M
[1]; [10]
  Tm3→2: 55 °C
[1]; [9]
  ΔTm3→2: 22.6 °C

## O=c1cc(-c2ccccc2)oc2cccc(OCCCO)c12
[1]; [9]
  ΔTm3→2: 5.4 °C

## O=c1cc(-c2ccccc2)oc2cccc(OCCCN3CCCC3)c12
[1]; [9]
  ΔTm3→2: 19.4 °C

## CCN(CC)CCCOc1cccc2oc(-c3ccccc3)cc(=O)c12
[1]; [9]
  ΔTm3→2: 24.4 °C

## O=c1cc(-c2ccccc2)oc2cccc(OCCCN3CCCCC3)c12
[2]
  Kd: 1.01 ± 0.20 × 10^-5 M
[3]
  binding: no
[4]
  binding: yes
[5]
  binding: no
[6]
  binding: yes
[7]
  binding: no
[1]; [10]
  Tm3→1: 60.7 °C
[8]
  binding: yes

## CN1CCN(CCCOc2cccc3oc(-c4ccccc4)cc(=O)c23)CC1
[1]; [9]
  ΔTm3→2: 25.7 °C

## CC(C)CCCOc1cccc2oc(-c3ccccc3)cc(=O)c12
[1]; [9]
  binding: no

## O=c1cc(-c2ccccc2)oc2cccc(O)c12
[2]; 100 μM ligand titrant, heat of dilution only
  binding: no
[1]; [9]
  binding: weak

## O=c1cc(-c2ccccc2)oc2cccc(OCCCN3CCOCC3)c12
[1]; [9]
  ΔTm3→2: 26.7 °C

## NCCCOc1cccc2oc(-c3ccccc3)cc(=O)c12
[1]; [9]
  ΔTm3→2: 23.2 °C
